# Reference: PubChem BioAssay AID330 (DTP/NCI, 2004)
# “And” between values parts separate entries of the source, which are not always exact repeats. Identical values can stand only once. Toxic doses and inconclusive results are not listed. Peptide text beside a SMILES is read from it.
# Tested on: P388 leukemia ip, CD2F1 mice, survival T/C
# Assay: NCI In Vivo Anticancer Drug Screen. Data for tumor model P388 Leukemia (intraperitoneal) in CD2F1 (CDF1) mice
# Conditions: endpoint: median survival time, higher = longer survival
# Method in brief: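 Mice carrying the transplanted tumor received test compound or vehicle. Survival was recorded in each group, and the value is the treated-group measurement divided by that of the vehicle-treated control group.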
# [1] = dose: 60.0 mg/kg/injection, schedule: Q01DX005 (ip), vehicle: saline with Tween-80
# [2] = dose: 120.0 mg/kg/injection, schedule: Q01DX005 (ip), vehicle: saline with Tween-80
# [3] = dose: 240.0 mg/kg/injection, schedule: Q01DX005 (ip), vehicle: saline with Tween-80
# [4] = dose: 25.0 mg/kg/injection, schedule: Q01DX005 (ip), vehicle: Klucel (hydroxypropylcellulose) (HPC)
# [5] = dose: 50.0 mg/kg/injection, schedule: Q01DX005 (ip), vehicle: Klucel (hydroxypropylcellulose) (HPC)
# [6] = dose: 100.0 mg/kg/injection, schedule: Q01DX005 (ip), vehicle: Klucel (hydroxypropylcellulose) (HPC)
# [7] = dose: 200.0 mg/kg/injection, schedule: Q01DX005 (ip), vehicle: Klucel (hydroxypropylcellulose) (HPC)
# [8] = dose: 50.0 mg/kg/injection, schedule: Q01DX009 (ip), vehicle: Klucel (hydroxypropylcellulose) (HPC)
# [9] = dose: 100.0 mg/kg/injection, schedule: Q01DX009 (ip), vehicle: Klucel (hydroxypropylcellulose) (HPC)
# [10] = dose: 200.0 mg/kg/injection, schedule: Q01DX009 (ip), vehicle: Klucel (hydroxypropylcellulose) (HPC)
# [11] = dose: 12.5 mg/kg/injection, schedule: Q01DX009 (ip), vehicle: saline with Tween-80
# [12] = dose: 25.0 mg/kg/injection, schedule: Q01DX009 (ip), vehicle: saline with Tween-80
# [13] = dose: 50.0 mg/kg/injection, schedule: Q01DX009 (ip), vehicle: saline with Tween-80
# [14] = dose: 50.0 mg/kg/injection, schedule: Q01DX009 (ip), vehicle: saline
# [15] = dose: 200.0 mg/kg/injection, schedule: Q01DX009 (ip), vehicle: saline
# [16] = dose: 60.0 mg/kg/injection, schedule: Q01DX005 (ip), vehicle: Klucel (hydroxypropylcellulose) (HPC)
# [17] = dose: 120.0 mg/kg/injection, schedule: Q01DX005 (ip), vehicle: Klucel (hydroxypropylcellulose) (HPC)
# [18] = dose: 25.0 mg/kg/injection, schedule: Q01DX009 (ip), vehicle: saline
# [19] = dose: 100.0 mg/kg/injection, schedule: Q01DX009 (ip), vehicle: saline
# [20] = dose: 100.0 mg/kg/injection, schedule: Q01DX009 (ip), vehicle: saline with Tween-80
# [21] = dose: 50.0 mg/kg/injection, schedule: Q01DX005 (ip), vehicle: saline with Tween-80
# [22] = dose: 100.0 mg/kg/injection, schedule: Q01DX005 (ip), vehicle: saline with Tween-80
# [23] = dose: 200.0 mg/kg/injection, schedule: Q01DX005 (ip), vehicle: saline with Tween-80
# [24] = dose: 50.0 mg/kg/injection, schedule: Q01DX005 (ip), vehicle: saline
# [25] = dose: 100.0 mg/kg/injection, schedule: Q01DX005 (ip), vehicle: saline
# [26] = dose: 200.0 mg/kg/injection, schedule: Q01DX005 (ip), vehicle: saline
# [27] = dose: 12.5 mg/kg/injection, schedule: Q01DX009 (ip), vehicle: saline
smiles,measurement,setting,value
C=CC(/C=C\c1ccc(OC2OC(CO)C(O)C(O)C2O)cc1)c1ccc(OC2OC(CO)C(O)C(O)C2O)cc1 (centres undefined),T/C,"dose: 60.0 mg/kg/injection, schedule: Q01DX005 (ip), vehicle: saline",97 % of control
same,T/C,"dose: 120.0 mg/kg/injection, schedule: Q01DX005 (ip), vehicle: saline",103 % of control
same,T/C,"dose: 240.0 mg/kg/injection, schedule: Q01DX005 (ip), vehicle: saline",92 % of control
CCOC(=O)c1c(C(=O)OC)nc2n1-c1ccccc1OC2,T/C,"dose: 30.0 mg/kg/injection, schedule: Q01DX005 (ip), vehicle: saline with Tween-80",97 % of control
same,T/C,[1],92 % of control and 94 % of control
same,T/C,[2],93 % of control
same,T/C,[3],93 % of control
Cc1cc(C)n2c(-c3ccccc3)c(C)c(C#N)c2n1,T/C,[1],106 % of control
same,T/C,[2],100 % of control
same,T/C,[3],91 % of control
CN1CCC(C(C)(C)C)CC1,T/C,[4],89 % of control
same,T/C,[5],94 % of control
same,T/C,[6],93 % of control
same,T/C,[7],98 % of control
Cc1c(NC(=O)Nc2c(Cl)cccc2Cl)c(=O)n(-c2ccccc2)n1C,T/C,[8],102 % of control
same,T/C,[9],106 % of control
same,T/C,[10],97 % of control
CCC(/C=C/c1ccccc1)=N\NC(=O)c1ccc(Cl)cc1,T/C,[1],101 % of control
same,T/C,[2],96 % of control
same,T/C,[3],105 % of control
CCOC(=O)CCc1nc(C)ncc1C(=O)OCC,T/C,[11],104 % of control
same,T/C,[12],106 % of control
same,T/C,[13],100 % of control
same,T/C,[14],91 % of control
same,T/C,[15],87 % of control
O=C(O)C1C2c3ccccc3C(c3ccccc32)C1C(=O)NCC1CC1 (centres undefined),T/C,[16],109 % of control
same,T/C,[17],110 % of control
O=C1/C(=C/c2ccc(F)cc2)SC(=S)N1c1ccc(Cl)c(Cl)c1,T/C,[18],91 % of control and 95 % of control
same,T/C,[14],104 % of control and 91 % of control and 94 % of control
same,T/C,[19],100 % of control and 94 % of control
same,T/C,[15],108 % of control and 124 % of control and 91 % of control
O=C(O)c1c(Cl)c(Cl)c(Cl)c(Cl)c1Cl,T/C,[20],95 % of control
same,T/C,"dose: 200.0 mg/kg/injection, schedule: Q01DX009 (ip), vehicle: saline with Tween-80",100 % of control
same,T/C,"dose: 400.0 mg/kg/injection, schedule: Q01DX009 (ip), vehicle: saline with Tween-80",113 % of control
N#Cc1c2ccccc2nc2ccccc12,T/C,[21],100 % of control
same,T/C,[22],96 % of control
same,T/C,[23],89 % of control
c1ccc2c(c1)OCCN1CCNC21 (centres undefined),T/C,"dose: 100.0 mg/kg/injection, schedule: Q04DX003 (ip), vehicle: saline",100 % of control
same,T/C,"dose: 200.0 mg/kg/injection, schedule: Q04DX003 (ip), vehicle: saline",102 % of control
same,T/C,"dose: 400.0 mg/kg/injection, schedule: Q04DX003 (ip), vehicle: saline",101 % of control
COC(=O)C1(O)OCC(O)C(O)C1O (centres undefined),T/C,[24],100 % of control
same,T/C,[25],105 % of control
same,T/C,[26],100 % of control
FC(F)(F)c1cc(NC(=S)SC2CCCCC2)ccc1Cl,T/C,[18],103 % of control
same,T/C,[14],100 % of control and 110 % of control
same,T/C,[19],107 % of control and 118 % of control
same,T/C,[15],121 % of control
O=NN(CCCl)C(=O)N[C@H]1CCCC[C@@H]1Cl,T/C,[12],250 % of control
same,T/C,"dose: 33.0 mg/kg/injection, schedule: Q04DX003 (ip), vehicle: saline with Tween-80",200 % of control
same,T/C,[13],109 % of control
same,T/C,"dose: 50.0 mg/kg/injection, schedule: Q04DX003 (ip), vehicle: saline with Tween-80",300 % of control
same,T/C,"dose: 100.0 mg/kg/injection, schedule: Q04DX003 (ip), vehicle: saline with Tween-80",90 % of control
COC(=O)C(CCCN)NC(=O)c1ccccc1 (centres undefined),T/C,[24],99 % of control
same,T/C,[25],92 % of control
same,T/C,[26],90 % of control
C=CCc1ccc(O)cc1,T/C,"dose: 25.0 mg/kg/injection, schedule: Q01DX009 (ip), vehicle: Klucel (hydroxypropylcellulose) (HPC)",93 % of control
same,T/C,[8],99 % of control
same,T/C,[9],107 % of control
same,T/C,[10],99 % of control
C[n+]1ccc2ccccc2c1-c1c2ccccc2cc[n+]1C,T/C,"dose: 12.5 mg/kg/injection, schedule: Q01DX001 (ip), vehicle: saline",115 % of control
same,T/C,"dose: 25.0 mg/kg/injection, schedule: Q01DX001 (ip), vehicle: saline",101 % of control
same,T/C,"dose: 50.0 mg/kg/injection, schedule: Q01DX001 (ip), vehicle: saline",99 % of control
O=C1CSC(c2cccc(Cl)c2)N1N1C(=O)CSC1c1cccc(Cl)c1 (centres undefined),T/C,[16],102 % of control
same,T/C,[17],97 % of control
same,T/C,"dose: 240.0 mg/kg/injection, schedule: Q01DX005 (ip), vehicle: Klucel (hydroxypropylcellulose) (HPC)",94 % of control
COc1cccc(CN2C(=O)NC(C)(C)C2O)c1 (centres undefined),T/C,[1],99 % of control
same,T/C,[2],101 % of control
same,T/C,[3],101 % of control
CCC(SC)C(=O)N(C)c1ccccc1 (centres undefined),T/C,"dose: 6.25 mg/kg/injection, schedule: Q01DX009 (ip), vehicle: saline",104 % of control
same,T/C,[27],107 % of control
same,T/C,[12],90 % of control
same,T/C,[18],114 % of control
same,T/C,[20],109 % of control
O=C(c1ccccc1)c1nn(-c2ccccc2)c(=O)cc1-c1ccccc1,T/C,[21],99 % of control
same,T/C,[22],100 % of control
same,T/C,[23],100 % of control
CCOP(=O)(CC(=O)c1cc2ccccc2[nH]1)OCC,T/C,[27],100 % of control
same,T/C,[18],92 % of control
same,T/C,[14],106 % of control and 95 % of control
same,T/C,[15],97 % of control
O=C(/N=C1\N=Nc2nc(C(C(=O)c3cccc([N+](=O)[O-])c3Cl)c3nc4n(c3O)/C(=N/C(=O)Nc3ccc(Cl)cc3)N=N4)c(O)n21)Nc1ccc(Cl)cc1 (centres undefined),T/C,[1],99 % of control
same,T/C,[2],100 % of control
same,T/C,[3],97 % of control
CC(=O)OC1C2C(OC3OC(=O)/C(=C\C=C4\CCCC(C)(C)C4)C32)O[C@H]1OC(C)=O (some centres undefined),T/C,"dose: 6.25 mg/kg/injection, schedule: Q01DX005 (ip), vehicle: Klucel (hydroxypropylcellulose) (HPC)",105 % of control
same,T/C,"dose: 12.5 mg/kg/injection, schedule: Q01DX005 (ip), vehicle: Klucel (hydroxypropylcellulose) (HPC)",113 % of control
same,T/C,[4],86 % of control
CCC(C)C(NC(=O)C(N)CCCN=C(N)N)C(=O)O (stereo not drawn) (H-Arg-Ile-OH; configuration not given here),T/C,[5],98 % of control
same,T/C,[6],100 % of control
same,T/C,[7],101 % of control
C=C1CCN(c2cccc(Cl)c2)C1=O,T/C,"dose: 4.0 mg/kg/injection, schedule: Q01DX009 (ip), vehicle: saline + alcohol",96 % of control
same,T/C,"dose: 8.0 mg/kg/injection, schedule: Q01DX009 (ip), vehicle: saline + alcohol",101 % of control
same,T/C,"dose: 16.0 mg/kg/injection, schedule: Q01DX009 (ip), vehicle: saline + alcohol",100 % of control
same,T/C,"dose: 32.0 mg/kg/injection, schedule: Q01DX009 (ip), vehicle: saline + alcohol",105 % of control
same,T/C,"dose: 64.0 mg/kg/injection, schedule: Q01DX009 (ip), vehicle: saline + alcohol",100 % of control
Cc1cc(=O)c2cc3c(cc2[nH]1)OCO3,T/C,[5],106 % of control
same,T/C,[6],100 % of control
same,T/C,[7],100 % of control
CC1OC(OC2C(Oc3cc(O)c4c(c3)OC(c3ccc(O)cc3)CC4=O)OC(CO)C(O)C2O)C(O)C(O)C1O (centres undefined),T/C,[24],98 % of control
same,T/C,[25],97 % of control
same,T/C,[26],98 % of control
Nc1ncnc2c1ncn2[C@@H](C=O)O[C@@H](C=O)CO,T/C,"dose: 3.13 mg/kg/injection, schedule: Q01DX009 (ip), vehicle: other",155 % of control
same,T/C,"dose: 6.25 mg/kg/injection, schedule: Q01DX009 (ip), vehicle: other",150 % of control and 169 % of control
CNC(=O)SC1=NS(=O)(=O)c2ccc(Cl)cc2N1,T/C,[16],110 % of control
same,T/C,[17],107 % of control
CCC(C(=O)Nc1ccccc1-c1ccccc1)c1ccccc1 (centres undefined),T/C,"dose: 6.25 mg/kg/injection, schedule: Q01DX009 (ip), vehicle: saline with Tween-80",110 % of control
same,T/C,[11],101 % of control
same,T/C,[12],96 % of control
same,T/C,[19],96 % of control
same,T/C,[15],87 % of control
